# Assay results reported in article PMC6240096, “A hPSC-based platform to discover gene-environment interactions that impact human β-cell and dopamine neuron survival” (Nature Communications, 2018).
# What was measured:
# INS+ cells = experiment: High-content survival / inhibitory curve, hESC-derived INS+ cells; format: cell-based, human; conditions: H1 hESC-derived, β-cell differentiation protocol 1, 4 days treatment, n = 8; read-out: IC50 for INS+ cells
# Description: The screening library ToxCast Phase I was obtained from the US Environmental Protection Agency, which contains approximately 2000 compounds dissolved at 20 mM in DMSO. The H1 hESC-derived population was dissociated with Accutase and re-plated onto laminin V-coated 384-well plates at 5000 cells per well. After 16 h incubation, cells were treated with individual compounds from the ToxCast library with four concentrations, including 20 nM, 200 nM, 2 μM, and 20 μM, for each compound. After 4 days, the cells were fixed with 10% formalin and stained with an INS antibody and DAPI, followed by automatic imaging and analysis by ImageXpress^MICRO Automated High-Content Analysis System (Molecular Devices) to count the numbers of INS^+ and INS^− cells. The survival rate was calculated by dividing the numbers of INS^+ cells in compound treated conditions by the average number of INS^+ cells in DMSO-treated conditions. The compounds that induced more than 60% reduction of the survival rate of INS^+ cells and less than 20% of the INS^− cells were chosen as primary hits. Hit compounds were then selected and validated in three additional independent experiments using the same protocol as the primary screening.
# (§1) hESCs-derived INS^+ cells, MSCs[43], neurons, and hepatocytes[44] were derived based on the reported protocols and re-plated on 96-well plates with Accutase digestion. Cardiomyocytes (CMs) were differentiated from H9-MYH6: mCherry reporter line, based on the reported protocol. After overnight incubation, cells were treated with DMSO or different doses of hit compounds for 4 days. After fixation, the cells were stained with markers for each cell type. DAPI was used to stain cell nuclei. Plates were analyzed by ImageXpress^MICRO Automated High-Content Analysis System.
# MIN6 cells [1] = experiment: MIN6 cell survival inhibitory curve; format: cell-based, mouse; conditions: cell survival rate; read-out: IC50, MIN6 cell death
# BJ-fibroblasts = experiment: Inhibition curve on BJ-fibroblasts; format: cell-based, human; conditions: cell survival rate, 4 days, n=3
# Description: as §1
# Supplementary Figure 4. Assessment of the toxic effect of propargite on different type […]
# (a) Flow cytometry char acterization of CD29+ and CD73+ mesenchymal stem cells (MSCs) derived from H1 hESCs. (b-c) microscope image (b) and flow cytometry (c) characterization of cardiomyocytes expressing MYH6+ derived from a MYH6:mCherry reporter hESC line. (d-e) Immunocytochemistry characterization of MAP2+/TUJ1+ and HuC/D+/MAP2+ neurons (d) and A1AT+/ASGPR1+ hepatocytes (e) derived from H1 hESCs. All the cells were counterstained by DAPI (blue). Scale bars, 100 µm. (f) Inhibition curve of propargite on pancreatic β-like cells, MSCs, cardiomyocytes, neurons, and hepatocytes derived from hESCs, and BJ-fibroblasts (n=3). Values presented as mean±S.D. […]
# MIN6 cells [2] = experiment: Autophagy marker LC3-II western blotting; format: cell-based, mouse; conditions: 0.8 µM or 1.6 µM propargite
# From the text: To extract intracellular protein, cells were placed on ice, washed twice with ice-cold PBS and lysed immediately with RIPA buffer (Life Technologies, 89900) supplemented with a protease inhibitor cocktail (Life Technologies, 78440). Cell lysates were then sonicated and the soluble fraction was collected after centrifugation. Protein amount was quantified by the BCA protein assay (Life Technologies, 23227). To extract extracellular HMGB1, tissue culture media were collected and concentrated using Afyon SDS-PAGE sample preparation kit (advansta, K-02101-025). 20 μg of total protein for each sample was mixed with loading buffer and incubated for 5 min at 95 °C before being loaded into NuPAGE® Novex® 4–12% […] Protein Gels (Life Technologies, NP0321BOX) for electrophoresis. Separated proteins were transferred to a PVDF membrane (Millipore, IPSN07852) after electrophoresis. […] ECL signals were developed and detected using the SuperSignal™ West Femto Maximum Sensitivity Substrate (Life Technologies, 34094) and a C-DiGit Chemiluminescent Western Blot Scanner (LI-COR). […]
# cells. (b, c) Flow cytometry analysis (b) and quantification (c) of the percentage of […]
# Etoposide was used as a positive control. Values presented as mean±S.D. (d, e) Immunocytochemistry analysis (d) and quantification (e) of the percentage of Active Caspase-3+ cells in 1.6 µM propargite treated MIN6 cells (n=3). […]
substance,measurement,setting,value
2-(4-tert-butylphenoxy)-cyclohexyl prop-2-yne-1-sulfonate [propargite],IC50,INS+ cells,1090 nM
same,IC50,MIN6 cells [1],1000 nM
same,IC50,BJ-fibroblasts,3000 nM
same,relative levels of LC3-II,MIN6 cells [2],no significant increase
